Experimental data published in US7186836B2 (priority 2002, dated 2007).

Biological target: α7 nAChR subtype (Rattus norvegicus, UniProt Q05941)
Type: binding
Details: read-out: KD of radioligand (saturation curves, one site model)

α7 nAChR subtype, sequence (Q05941 23-502 limits assumed): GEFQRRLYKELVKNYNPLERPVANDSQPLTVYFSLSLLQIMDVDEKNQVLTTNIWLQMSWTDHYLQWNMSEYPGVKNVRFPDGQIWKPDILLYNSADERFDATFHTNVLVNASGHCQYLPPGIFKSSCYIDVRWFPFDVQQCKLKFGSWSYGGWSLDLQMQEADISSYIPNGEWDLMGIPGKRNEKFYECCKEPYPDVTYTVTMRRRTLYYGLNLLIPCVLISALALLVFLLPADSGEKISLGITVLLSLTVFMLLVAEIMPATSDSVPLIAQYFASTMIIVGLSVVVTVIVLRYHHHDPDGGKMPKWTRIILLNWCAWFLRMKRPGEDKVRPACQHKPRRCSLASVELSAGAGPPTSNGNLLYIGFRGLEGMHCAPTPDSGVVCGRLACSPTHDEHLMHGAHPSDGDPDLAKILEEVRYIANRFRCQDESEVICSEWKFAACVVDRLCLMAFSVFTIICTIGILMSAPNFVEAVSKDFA

Substance: [^125I]-α-Bungarotoxin [[^125I]-α-BTX]
- Kd: 1.67 nM
